Reference: patent US11311012B1, “Bacterial control in fermentation systems” (Clean Chemistry, Inc., priority 2017, dated 2022)
Several values for one entry are separate records, joined by “and”; a condition that tells them apart may be missing. Identical values can stand only once. One block for each compound: values may come before it.

How the values were obtained:
[1] = ORP of oxidant solutions at pH 7; assay type: physicochemical; details: 29 mM
[2] = tested on: bacteria population in stationary phase; assay type: cell-based
[3] = tested on: APB; assay type: cell-based, bacteria
[4] = tested on: SRB; assay type: cell-based, bacteria
[5] = tested on: yeast cells; assay type: cell-based, Saccharomyes cerevisiae and Schizosaccharomyces pombe

ORP [1]: about 0.5 V (vs SHE)
SMILES: OO [hydrogen peroxide]

ORP [1]: over 1.1 V (vs SHE)
SMILES: OCl [hypochlorous acid]

SMILES: CCCCCCCCCCCC[N+](C)(C)CCCCCCCCCCCC.[Br-] [DDAB, didodecyldimethylammonium bromide]
ATP [2]: 185 pg/mL and 291 pg/mL
Effectiveness against bacteria in the stationary phase compared with peracetate oxidant [2]: less effective
APB [3]: 3 bottles and 4 bottles
SRB [4]: 5 bottles and 6 bottles

SMILES: [O][Cl+][O-] [Chlorine Dioxide, chlorine dioxide]
Yeast activity vs untreated mash [5]: greater yeast activity
